Experimental data reported in patent EP0307071B1, “Flavor and fragrance enhancing enzymes” (YISSUM RESEARCH DEVELOPMENT COMPANY OF THE HEBREW …, priority 1987, dated 1989).
Where two headings read alike, the source gives them in different places.

Target: T1, Aspergillus niger B1 endo-β-glucosidase B1 (strain CMI CC 324626) preparation (Aspergillus niger, UniProt A2RAL4)
T1 sequence (A2RAL4 20-860): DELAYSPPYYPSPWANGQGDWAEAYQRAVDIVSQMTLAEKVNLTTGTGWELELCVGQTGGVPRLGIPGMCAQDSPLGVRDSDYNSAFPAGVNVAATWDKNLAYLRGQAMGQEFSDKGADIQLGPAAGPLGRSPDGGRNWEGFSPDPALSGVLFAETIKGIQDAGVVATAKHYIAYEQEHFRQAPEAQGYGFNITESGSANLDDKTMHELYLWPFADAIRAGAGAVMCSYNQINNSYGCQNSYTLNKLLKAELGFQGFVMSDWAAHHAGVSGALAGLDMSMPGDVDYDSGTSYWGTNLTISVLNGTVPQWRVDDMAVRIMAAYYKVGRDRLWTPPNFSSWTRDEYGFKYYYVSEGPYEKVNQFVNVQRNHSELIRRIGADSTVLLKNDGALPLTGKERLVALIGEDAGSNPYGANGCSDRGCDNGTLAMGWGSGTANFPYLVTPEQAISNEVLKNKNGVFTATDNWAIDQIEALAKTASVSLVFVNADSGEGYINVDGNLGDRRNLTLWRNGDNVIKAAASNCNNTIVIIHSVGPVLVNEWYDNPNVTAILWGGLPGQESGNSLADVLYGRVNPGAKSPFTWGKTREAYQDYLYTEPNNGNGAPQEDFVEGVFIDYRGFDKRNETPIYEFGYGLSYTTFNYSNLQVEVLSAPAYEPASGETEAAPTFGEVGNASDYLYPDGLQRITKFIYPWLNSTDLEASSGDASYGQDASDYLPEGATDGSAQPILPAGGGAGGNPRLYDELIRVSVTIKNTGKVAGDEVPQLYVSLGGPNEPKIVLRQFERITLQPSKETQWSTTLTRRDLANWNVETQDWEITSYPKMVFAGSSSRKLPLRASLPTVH
Test: β-glucosidase kinetics and inhibition by standard procedures (PNPG or geranyl β rutinoside as substrates)
Assay type: biochemical, Aspergillus niger B1 strain CMI CC 324626
Details: remaining enzyme activity
Method: The concentrations of free and bound monoterpenes are preferably determined according to the method of Dimitriadis et. al. (Amer J. Enol. Vitic. 35:66-71 (1984) which reference is herein incorporated by reference). The activity of the endo-β-glucosidase of the present invention is preferably determined by standard methods using either PNPG or geranyl beta rutinoside as substrates.
The β-glucosidase activity was assayed by incubating 25 µl of enzyme preparation in 1 ml of 1 mM PNPG (p-nitrophenyl-β-D-glucopyranoside) for 2 minutes at 35°. The reaction was terminated by adding 200 µl of 1M Na2CO3 and the OD was read at 399 nm.
The supernatant and the filtered samples were then separately incubated with 20 ml of 1 mg/l of wine glycosides for 20 hours at 30°. Free monoterpenes were then analyzed according to Dimitriadis et al. (Amer J. Enol. Vitic. 35:66-71 (1984)). Characterization of the A. niger B1 β-glucosidase B1 activity included the determination of pH, ionic strength, temperature, and ethanol response curves, Km, Vmax and Ki for glucose, by standard procedures. In addition, the effect of various concentrations of grape juice (Muscat of Alexandria) sucrose, fructose and SO2 on the enzyme activity was determined by conventional methods. […]

With `OC[C@H]1O[C@@](CO)(O[C@H]2O[C@H](CO)[C@@H](O)[C@H](O)[C@H]2O)[C@@H](O)[C@@H]1O` [sucrose] the activity at 1 M (1M sucrose, read-out: Activity in the presence of 1M sucrose) was 90%.

In the case of SO2, the “Activity in the presence of 200ppm SO2” value (200ppm SO2) is reported as 100%.

Compound `O=C(CO)[C@@H](O)[C@H](O)[C@H](O)CO` [Fructose, fructose] has an activity at 1 M (1M Fructose, read-out: Activity in the presence of 1M Fructose) of 90%.
